Assay results as given in patent US11071731B2, “Allosteric modulators of the mu opioid receptor” (Chiromics, LLC, priority 2017, dated 2021).

Assays:
mu opioid receptor (MOR) [1] = target: T1, mu opioid receptor (MOR) (Homo sapiens, UniProt P35372); experiment: Hit Hunter cAMP signaling assay (adenylyl cyclase inhibition), PAM mode with EC20 endomorphin-1; type: cell-based
mu opioid receptor (MOR) [2] = target: T1, mu opioid receptor (MOR); experiment: PathHunter β-arrestin recruitment assay, PAM mode with EC20 endomorphin-1; type: cell-based
Outline: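 β-Arrestin recruitment to the receptor was tracked by chemiluminescent β-galactosidase activity from complementing fragments (ED on receptor, EA on β-arrestin). Per-compound outputs were EC50 and percent maximal response.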

[3] = adenylyl cyclase inhibition, read-out: cAMP EC50
[4] = maximal response for adenylyl cyclase inhibition
[5] = maximal response for β-arrestin recruitment
[6] = β-arrestin recruitment, read-out: β-arr. EC50
[7] = cAMP EC50, adenylyl cyclase inhibition
[8] = maximal response, adenylyl cyclase inhibition
[9] = maximal response, β-arrestin recruitment

T1 sequence (P35372 whole entry): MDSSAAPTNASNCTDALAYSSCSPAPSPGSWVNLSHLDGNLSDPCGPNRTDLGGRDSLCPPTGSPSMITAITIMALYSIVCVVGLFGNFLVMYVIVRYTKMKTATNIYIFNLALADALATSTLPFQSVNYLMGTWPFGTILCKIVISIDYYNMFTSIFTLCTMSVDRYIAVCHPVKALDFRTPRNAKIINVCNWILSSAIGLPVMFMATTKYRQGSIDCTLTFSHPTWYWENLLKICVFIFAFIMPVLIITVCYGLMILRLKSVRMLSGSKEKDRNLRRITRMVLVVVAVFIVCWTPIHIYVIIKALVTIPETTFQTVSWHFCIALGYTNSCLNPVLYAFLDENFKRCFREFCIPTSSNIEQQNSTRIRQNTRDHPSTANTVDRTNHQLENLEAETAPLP

Row | SMILES | EC50 (mu opioid receptor (MOR) [1]; [3]) [µM] | cAMP Max. Resp. (mu opioid receptor (MOR) [1]; [4]) | β-arr Max. Resp. (mu opioid receptor (MOR) [2]; [5]) | EC50 (mu opioid receptor (MOR) [2]; [6]) [µM] | EC50 (mu opioid receptor (MOR) [1]; [7]) [µM] | cAMP Max. Resp. (mu opioid receptor (MOR) [1]; [8]) | β-arr Max. Resp. (mu opioid receptor (MOR) [2]; [9]) | cAMP Max Resp. (mu opioid receptor (MOR) [1]; adenylyl cyclase inhibition, activity switching by MOR PAMs) | EC50 (mu opioid receptor (MOR) [1]; adenylyl cyclase inhibition, activity switching by MOR PAMs, read-out: cAMP EC50) [µM] | β-arrestin Max Response (mu opioid receptor (MOR) [2]; β-arrestin recruitment, activity switching by MOR PAMs) | EC50 (mu opioid receptor (MOR) [2]; β-arrestin recruitment, activity switching by MOR PAMs, read-out: β-arrestin EC50) [µM]
1 | O=S(=O)(Cc1ccccc1Cl)N1C2CCC(C2)C1c1ccc(F)c(Br)c1 (stereo not drawn) [Compound 183] | > 2.1 | D (D represents a maximal response of < 40%) | E (E represents a maximal response of 40-60%) | > 2.1 |  |  |  |  |  |  | 
2 | COc1ncccc1C1CCCCN1c1nc(Cl)ncc1F (stereo not drawn) [compound 380] |  | D (D represents a maximal response of < 40%) | D (D represents a maximal response of < 40%) | < 0.7 | < 0.7 |  |  |  |  |  | 
3 | O=C1CCN(c2nc(Cl)ncc2F)C(c2ccc(F)c(Br)c2)C1 (stereo not drawn) [compound 240] |  | E (E represents a maximal response of 40-60%) | D (D represents a maximal response of < 40%) | > 2.1 | > 2.1 |  |  |  |  |  | 
4 | O=S(=O)(Cc1ccc(Cl)cc1)N1CCCC(F)C1c1ccc(F)c(Br)c1 (stereo not drawn) [Compound 33] | > 2.1 |  |  | > 2.1 |  |  |  |  |  |  | 
5 | Fc1cc(C2COCCN2Cc2cc(Cl)ccc2F)cc(C(F)(F)F)c1 (racemic) [Compound 195] | > 2.1 | D (D represents a maximal response of < 40%) | F (F represents a maximal response of > 60%) | 0.7 to 2.1 |  |  |  |  |  |  | 
6 | COC(=O)c1cc(C2CCCCN2S(=O)(=O)c2ccc(Cl)cc2)ccn1 (racemic) [compound 81] | > 2.1 | D (D represents a maximal response of < 40%) | E (E represents a maximal response of 40-60%) | > 2.1 |  |  |  |  |  |  | 
7 | OCCNc1cccc(C2CCCCN2Cc2cc(Cl)ccc2F)n1 (stereo not drawn) [compound 141] | > 2.1 | D (D represents a maximal response of < 40%) | D (D represents a maximal response of < 40%) | > 2.1 |  |  |  |  |  |  | 
8 | Fc1ccc(C2CCCCN2c2nc(Cl)ncc2F)nc1 (stereo not drawn) [compound 372] |  | D (D represents a maximal response of < 40%) | D (D represents a maximal response of < 40%) | < 0.7 | < 0.7 |  |  |  |  |  | 
9 | Fc1cc(Cl)cc(C2CCCCN2c2nc(Cl)ncc2F)c1 (single isomer, unassigned) [compound 420] |  |  |  | < 0.7 |  | D (D represents a maximal response of < 40%) | D (D represents a maximal response of < 40%) |  |  |  | 
10 | O=S(=O)(c1ccc(Cl)cc1F)N1C2CCC(C2)C1c1ccc(F)c(Br)c1 (stereo not drawn) [Compound 184] | > 2.1 | D (D represents a maximal response of < 40%) | F (F represents a maximal response of > 60%) | > 2.1 |  |  |  |  |  |  | 
11 | OC1CCN(c2nc(Cl)ncc2F)C(c2cccc(C(F)(F)F)c2)C1 (stereo not drawn) [compound 202] |  | E (E represents a maximal response of 40-60%) | F (F represents a maximal response of > 60%) | > 2.1 | > 2.1 |  |  |  |  |  | 
12 | Fc1cnc(Cl)nc1N1CCSCC1c1cccc(C(F)(F)F)c1 (stereo not drawn) [Compound 456] | > 2.1 |  |  | > 2.1 |  | E (E represents a maximal response of 40-60%) | F (F represents a maximal response of > 60%) |  |  |  | 
13 | COc1ccc(C2CCCCN2c2nc(Cl)ncc2OC)cc1Br (stereo not drawn) [compound 235] |  | F (F represents a maximal response of > 60%) | F (F represents a maximal response of > 60%) | > 2.1 | > 2.1 |  |  |  |  |  | 
14 | C=C1CCN(c2nc(Cl)ncc2F)C(c2cc(F)cc(C(F)(F)F)c2)C1 (stereo not drawn) [compound 200] |  | E (E represents a maximal response of 40-60%) | F (F represents a maximal response of > 60%) | < 0.7 | < 0.7 |  |  |  |  |  | 
15 | COc1ccc(N2CCCCC2c2cccc(C(F)(F)F)n2)cc1 (stereo not drawn) [compound 474] | > 2.1 |  |  | > 2.1 |  | D (D represents a maximal response of < 40%) | D (D represents a maximal response of < 40%) |  |  |  | 
16 | Fc1cnc(Cl)nc1N1C2CCC(C2)C1c1cccc(C(F)(F)F)n1 (stereo not drawn) [compound 137] |  | D (D represents a maximal response of < 40%) | D (D represents a maximal response of < 40%) | > 2.1 | > 2.1 |  |  |  |  |  | 
17 | COC(=O)c1ccc(N2CCCCC2c2ccc(F)c(Cl)c2)cc1 (stereo not drawn) [compound 477] |  |  |  | > 2.1 | > 2.1 | D (D represents a maximal response of < 40%) | F (F represents a maximal response of > 60%) |  |  |  | 
18 | COc1ccc(C2CCCCN2c2cc(F)cc(Cl)n2)cc1Br (stereo not drawn) [compound 215] |  | D (D represents a maximal response of < 40%) | F (F represents a maximal response of > 60%) | 0.7 to 2.1 | > 2.1 |  |  |  |  |  | 

Row | SMILES | EC50 (mu opioid receptor (MOR) [1]; [3]) [µM] | cAMP Max. Resp. (mu opioid receptor (MOR) [1]; [4]) | β-arr Max. Resp. (mu opioid receptor (MOR) [2]; [5]) | EC50 (mu opioid receptor (MOR) [2]; [6]) [µM] | EC50 (mu opioid receptor (MOR) [1]; [7]) [µM] | cAMP Max. Resp. (mu opioid receptor (MOR) [1]; [8]) | β-arr Max. Resp. (mu opioid receptor (MOR) [2]; [9]) | cAMP Max Resp. (mu opioid receptor (MOR) [1]; adenylyl cyclase inhibition, activity switching by MOR PAMs) | EC50 (mu opioid receptor (MOR) [1]; adenylyl cyclase inhibition, activity switching by MOR PAMs, read-out: cAMP EC50) [µM] | β-arrestin Max Response (mu opioid receptor (MOR) [2]; β-arrestin recruitment, activity switching by MOR PAMs) | EC50 (mu opioid receptor (MOR) [2]; β-arrestin recruitment, activity switching by MOR PAMs, read-out: β-arrestin EC50) [µM]
19 | Cc1cnc(N2CCCCC2c2cccc(F)n2)nc1Cl (stereo not drawn) [compound 268] |  | F (F represents a maximal response of > 60%) | D (D represents a maximal response of < 40%) | > 2.1 | > 2.1 |  |  |  |  |  | 
20 | FC(F)(F)c1cccc(CN2CCCCC2c2cccc(C(F)(F)F)n2)c1 (stereo not drawn) [compound 175] |  | E (E represents a maximal response of 40-60%) | F (F represents a maximal response of > 60%) | > 2.1 | > 2.1 |  |  |  |  |  | 
21 | CC[C@@H]1CCCN(c2nc(Cl)ncc2F)[C@@H]1c1ccc(OC)c(Br)c1 (relative stereo) [compound 250] |  | D (D represents a maximal response of < 40%) | F (F represents a maximal response of > 60%) | > 2.1 | > 2.1 |  |  |  |  |  | 
22 | COc1ccc(C2CCCCN2S(=O)(=O)c2ccc(F)cc2)cc1Br (stereo not drawn) [compound 13] | > 2.1 | F (F represents a maximal response of > 60%) | F (F represents a maximal response of > 60%) | > 2.1 |  |  |  |  |  |  | 
23 | [2H]C1(c2ccc(F)c(Br)c2)C(F)CCCN1Cc1cccc(Cl)c1 (stereo not drawn) [compound 203] |  | D (D represents a maximal response of < 40%) | F (F represents a maximal response of > 60%) | > 2.1 | < 0.7 |  |  |  |  |  | 
24 | O=S(=O)(c1ccc(Cl)cc1)N1CCCCC1c1ccc(F)c(F)c1 (racemic) [compound 75] | < 0.7 | E (E represents a maximal response of 40-60%) | F (F represents a maximal response of > 60%) | 0.7 to 2.1 |  |  |  |  |  |  | 
25 | Cc1ccc(C(F)(F)F)cc1C1CCCCN1c1nc(Cl)ncc1F (stereo not drawn) [compound 134] |  | D (D represents a maximal response of < 40%) | F (F represents a maximal response of > 60%) | > 2.1 | > 2.1 |  |  |  |  |  | 
26 | CC1CCN(S(=O)(=O)c2ccc(Cl)cc2)C1c1ccc(F)c(Cl)c1 (mixture of isomers) [Compound 105] | 0.7 to 2.1 | D (D represents a maximal response of < 40%) | F (F represents a maximal response of > 60%) | 0.7 to 2.1 |  |  |  |  |  |  | 
27 | Fc1cnc(Cl)nc1N1CCCCC1c1cnc2cccnn12 (stereo not drawn) [compound 337] |  | D (D represents a maximal response of < 40%) | D (D represents a maximal response of < 40%) | < 0.7 | < 0.7 |  |  |  |  |  | 
28 | Oc1ncc(F)c(N2CCCCC2c2cccc(C(F)(F)F)c2)n1 (stereo not drawn) [compound 349] |  | D (D represents a maximal response of < 40%) | D (D represents a maximal response of < 40%) | < 0.7 | < 0.7 |  |  |  |  |  | 
29 | Fc1cnc(Cl)nc1C1CCCCN1c1nc(Cl)ncc1F (stereo not drawn) [compound 357] |  | D (D represents a maximal response of < 40%) | D (D represents a maximal response of < 40%) | < 0.7 | < 0.7 |  |  |  |  |  | 
30 | Cc1cnc(Cl)nc1N1CCCCC1c1cccc(F)n1 (stereo not drawn) [compound 267] |  | E (E represents a maximal response of 40-60%) | D (D represents a maximal response of < 40%) | > 2.1 | > 2.1 |  |  |  |  |  | 
31 | COc1ccc(C2CC(C(F)(F)F)CN2S(=O)(=O)c2ccc(Cl)cc2)cc1Br (mixture of isomers) [Compound 86] | > 2.1 | D (D represents a maximal response of < 40%) | D (D represents a maximal response of < 40%) | > 2.1 |  |  |  |  |  |  | 
32 | O=S(=O)(c1ccc(Cl)cc1)N1CCCCC1c1nccc(C(F)(F)F)n1 (racemic) [compound 73] | > 2.1 | D (D represents a maximal response of < 40%) | F (F represents a maximal response of > 60%) | > 2.1 |  |  |  | D (D represents a maximal response of < 40%) | > 2.1 | F (F represents a maximal response of >60%) | > 2.1
33 | Fc1cnc(Cl)nc1N1CCCCC1c1ccn2nncc2c1 (stereo not drawn) [compound 374] |  | D (D represents a maximal response of < 40%) | D (D represents a maximal response of < 40%) | < 0.7 | < 0.7 |  |  |  |  |  | 
34 | Fc1cnc(Cl)nc1N1CCCCC1c1cc(Cl)cnc1F (stereo not drawn) [compound 390] |  | D (D represents a maximal response of < 40%) | D (D represents a maximal response of < 40%) | < 0.7 | < 0.7 |  |  |  |  |  | 
35 | OC1Cc2ccccc2C1N1CCCCC1c1ccc(F)c(Cl)c1 (stereo not drawn) [compound 447] |  |  |  | > 2.1 | > 2.1 | D (D represents a maximal response of < 40%) | D (D represents a maximal response of < 40%) |  |  |  | 
